The numbers were not newly measured in patent US20090011059A1, “Ginger Extract For Inhibiting Human Drug Transporters” (priority 2005, published 2009), which cites them from elsewhere.

The conditions of data set [1]: in vivo.

Take vitamin E: in data set [1], the “increase of the plasma exposure of cyclosporin A” value is reported as “roughly two-fold”.
As to `CO[C@H]1C[C@@H]2CC[C@@H](C)[C@@](O)(O2)C(=O)C(=O)N2CCCC[C@H]2C(=O)O[C@H]([C@H](C)C[C@@H]2CC[C@@H](O)[C@H](OC)C2)CC(=O)[C@H](C)/C=C(\C)[C@@H](O)[C@@H](OC)C(=O)[C@H](C)C[C@H](C)/C=C/C=C/C=C/1C` [Sirolimus], the oral availability is listed as 15%.
For the molecule `C=CC[C@@H]1/C=C(\C)C[C@H](C)C[C@H](OC)[C@H]2O[C@@](O)(C(=O)C(=O)N3CCCC[C@H]3C(=O)O[C@H](/C(C)=C/[C@@H]3CC[C@@H](O)[C@H](OC)C3)[C@H](C)[C@@H](O)CC1=O)[C@H](C)C[C@@H]2OC` [Tacrolimus], the oral availability is reported as 16%.
As for `CC[C@@]1(O)C(=O)OCc2c1cc1n(c2=O)Cc2cc3c(CN(C)C)c(O)ccc3nc2-1` [Topotecan], the oral availability is recorded as 42%.
Turning to `CC[C@H](C)C(=O)O[C@H]1C[C@@H](C)C=C2C=C[C@H](C)[C@H](CC[C@@H]3C[C@@H](O)CC(=O)O3)[C@H]21` [Lovastatin], the oral availability is 4%.
As for `CC(=O)O[C@@]12CO[C@@H]1C[C@H](O)[C@@]1(C)C(=O)[C@H](O)C3=C(C)[C@@H](OC(=O)[C@H](O)[C@@H](NC(=O)OC(C)(C)C)c4ccccc4)C[C@@](O)([C@@H](OC(=O)c4ccccc4)[C@H]21)C3(C)C` [Docetaxel], the oral availability was 8%.
